{
  "source": "patent US20150125452A1",
  "about": "“COMBINATION TREATMENTS COMPRISING C-MET ANTAGONISTS AND B-RAF ANTAGONISTS” (GENENTECH, INC., priority 2011, published 2015)",
  "key": {"[1]": {"tested_on": "kinase-addicted cancer cell lines", "test": "RTK ligand matrix screen, Syto 60 cell viability", "format": "cell-based, Human", "conditions": "for effect of RTK ligand on conferring drug resistance to kinase inhibitors: 50 ng/mL RTK ligand, 72 h, 41 cell lines", "protocol": "(§1) Cell viability was assessed using the nucleic acid stain Syto 60 (Invitrogen). Cells (3000-5000 per well) were seeded into 96 well plates and allowed to adhere overnight. The next day, cells were treated with (or without) 50 ng/mL RTK ligand and concomitantly exposed to an increasing concentration range of the relevant kinase inhibitor. Following 72 hours drug exposure, cells were fixed in 4% formaldehyde, stained with Syto 60 and cell number was assessed using an Odyssey scanner (Li-Cor). Cell viability was calculated by dividing the fluorescence obtained from the drug-treated cells by the fluorescence obtained from the control (no drug) treated cells.\nCell lines. Human cancer cell lines were obtained and tested for sensitivity using an automated platform as previously described (Johannessen, C. M. et al. COT drives resistance to RAF inhibition through MAP kinase pathway reactivation. Nature 468, 968-972, doi:10.1038/nature09627 (2010)). Cell lines were maintained at 37° C. in a humidified atmosphere at 5% CO2 and grown in RPMI 1640 or DMEM/F12 growth media (GIBCO) supplemented with 10% fetal bovine serum (GIBCO), 50 units/mL penicillin and 50 μg/mL streptomycin (GIBCO).\nUsing 41 different human tumor-derived cell lines with previously defined kinase dependency^7-9, we undertook a “matrix analysis” to examine the effects of 6 different RTK ligands (HGF, EGF, FGF, PDGF, NRG1, IGF)—known to be widely expressed in cancer cells and tumor stroma^10—on drug response. Specifically, we quantified the effect of exposing these cancer cell lines (e.g., AU565 (HER2 amp)) to each ligand on the IC50 for a kinase inhibitor (e.g., lapatinib) that otherwise potently suppresses their growth within 72 hours (FIG. 1A). Nearly all of the kinase-dependent cancer cell lines tested, which included cells derived from multiple tissue types and with distinct kinase dependencies (EGFR, HER2, BRAF, MET, ALK, PDGFR, and FGFR), could be rescued from drug-induced growth inhibition by one or more RTK ligands, highlighting the potentially broad contribution of these ligands to the response to selective kinase inhibitors in kinase-addicted tumor cells (FIG. 1B)."}, "928MEL xenografts": {"tested_on": "928MEL xenografts", "test": "Xenograft tumour growth assay", "format": "in vivo, CRL C.B-17 SCID.bg mice", "conditions": "for tumor regression, B-raf antagonist plus c-met antagonist versus PLX[…] alone: PLX[…]-treated xenografts", "protocol": "[…] Differences between the 2 groups were determined using two-way ANOVA (*=0.0008).\nAll procedures conformed to the guidelines and principles set by the Institutional Animal care and Use Committee of Genentech and were carried out in an AAALAC (Association for the Assessment and Accreditation of Laboratory Animal care) accredited facility. […] Tumor volumes were calculated using the formula (Lx(W×W))/2. A partial response (PR) in this example was defined as a reduction in tumour volume greater than 50% but less than 100%. A complete response (CR) in this example was defined as 100% reduction in tumour volume. […]"}, "[2]": {"tested_on": "kinase-addicted cancer cell lines", "test": "RTK ligand matrix screen, Syto 60 cell viability", "format": "cell-based, Human", "conditions": "six kinase addicted cell lines, six RTK ligands"}, "[3]": {"tested_on": "BRAF mutant melanoma cell lines", "test": "Syto 60 cell viability, HGF rescue from PLX[…]", "format": "cell-based, Human", "protocol": "Cells were treated twice weekly for the indicated times. […] Error bars represent mean+/−s.e.m.\nas §1, with “Following 72 hours drug exposure, cells were fixed in 4% formaldehyde, stained with Syto 60 and cell number was assessed using an Odyssey scanner (Li-Cor).” left out"}, "[4]": {"tested_on": "HCC1954 HER2 amplified breast cancer cells", "conditions": "lapatinib 5 μM, crizotinib 1 μM, twice weekly", "protocol": "Cells were treated twice weekly for the indicated times.\nThe effects of MET kinase inhibition to delay lapatinib resistance in HCC 1954 cells were examined."}, "[5]": {"tested_on": "AKT and ERK phosphorylation", "test": "Immunoblots of survival pathway re-activation", "format": "cell-based, Human", "conditions": "for PI3K/MAPK pathway re-activation by RTK ligand in presence of kinase inhibitor: 50 ng/mL ligand, kinase inhibitor 1 μM, 2 h", "protocol": "FIGS. 2A-2C: pro-survival pathway re-activation correlated with RTK ligand rescue. FIG. 2A, Immunoblots showing the effect of acute RTK ligand treatment (50 ng/mL) on AKT and ERK phosphorylation following kinase inhibition (1 μM, 2 h). RTK ligand rescue is indicated, grey squares indicates complete rescue and black squares indicates partial rescue as determined by the initial screen (FIG. 1B). […] Cells were co-treated with 50 ng/mL RTK ligand in the presence of the appropriate secondary kinase inhibitor (0.5 μM) as indicated. […] Error bars represent mean+/−s.e.m. FIG. 2C, Immunoblots showing the effect of acute kinase inhibition (1 μM) in the presence and absence of RTK ligands (50 ng/mL, 2 h) on AKT and ERK phosphorylation. Cells were co-treated with secondary kinase inhibitor (0.5 μM) as appropriate.\nCell lysates were harvested using Nonidet-P40 lysis buffer, supplemented with Halt protease and phosphatase inhibitor cocktail (Thermo Scientific) and immunodetection of proteins was carried out using standard protocols. The phospho-HER2 (Y1248; #2247), HER2 (#2242), phospho-HER3 (Y1289; #4791), phospho-MET (Y1234/5; #3126), PDGFRα (#5241), phospho-FRS2α (Y196; #3864), IGF-1Rβ (#3027), phospho-ALK (Y1604; #3341), AKT (#9272), phospho-ERK (T202/Y204; #9101), ERK (#9102), GAPDH (#2118) and β-Tubulin (#2146) antibodies were purchased from Cell Signaling Technologies. Antibodies to HER3 (SC-285), MET (SC-10), phospho-PDGFRα (SC-12911), FRS2α (SC-8318), FGFR1 (SC-7945), FGFR2 (SC-122), FGFR3 (SC-13121) and ALK (SC-25447) were purchased from Santa Cruz Biotechnologies. Phospho-AKT (S473; #44-621G) antibody was purchased from Invitrogen. Phospho-EGFR (Y1068; ab5644) antibody was purchased from Abeam. EGFR (#610017) antibody was purchased from BD Biosciences. PARP (#14-6666-92) antibody was purchased from eBioscience. Densitometry was carried out using ImageJ software."}, "[6]": {"tested_on": "AU565 HER2 amplified breast cancer cells", "test": "Syto 60 viability and long-term staining with lapatinib and ligands", "format": "cell-based, Human", "conditions": "lapatinib 1 μM, 10 ng/mL NRG1, FGF or combination, 72 h", "protocol": "FIGS. 3A-3G: HGF promoted lapatinib resistance in HER2 amplified cell lines. […] HGF rescue is indicated, black squares indicates partial rescue as determined by the initial screen (FIG. 1B). […] Cells were treated every three days for the indicated times. […] FIG. 3D, Immunoblots showing the re-activation of pAKT and pERK in two MET positive (AU565, HCC1954) and one MET negative (BT474) HER2 amplified cell lines. […] FIG. 3E, Representative slides showing MET expression in HER2 positive (3+) breast cancer tissues. FIG. 3F, selection of higher MET expressing AU565 cells following 3× treatments with lapatinib (1 μM) and HGF (50 ng/mL). FIG. 3G. […] Cells were treated twice weekly for the indicated times.\nAU565 sells were co-treated with lapatinib (1 μM) in combination with 10 ng/mL NRG1 or FGF. […] Cells were treated with the appropriate kinase inhibitors in the presence of HGF (50 ng/mL). Cells were then treated with either 100 nM PI3K inhibitor (BEZ235) or MAPK inhibitor (AZD6244). Error bars represent mean+/−s.e.m.\nas §1"}, "[7]": {"tested_on": "HER2-amplified breast cancer cell lines", "test": "Syto 60 cell viability, ligand rescue from lapatinib", "format": "cell-based, Human", "conditions": "50 ng/mL ligand, 72 h", "protocol": "as §1\nThe ability of HGF to rescue 3 of 9 tested HER2-amplified breast cancer cell lines from growth inhibition by the HER2 kinase inhibitor lapatinib was also unexpected (FIG. 3A). These 3 cell lines all express MET, and expression was well correlated with the ability of HGF to attenuate lapatinib response (FIG. 3B)."}, "[8]": {"tested_on": "BRAF mutant metastatic melanoma patients", "test": "BRIM2 clinical trial, outcome by plasma HGF level", "format": "in vivo, human", "conditions": "PLX[…]-treated patients", "method": "Plasma was obtained from metastatic melanoma patients pre-dose cycle one and the concentration of HGF in patient-derived plasma were quantitatively measured using a sandwich enzyme-linked immunosorbent assay (ELISA). Wells of NUNC MaxiSorp microtiter plates were coated (ON, 4° C.) with 0.5 μg/mL of affinity-purified Goat antihuman hepatocyte growth factor polyclonal antibody in 100 μL of coating buffer (0.05M sodium carbonate buffer, pH 9.6) and were then blocked with 0.5% bovine serum albumin (BSA) in assay buffer (PBS, 0.5% BSA, 0.05% P 20, 0.25% CHAPS, 0.35M NaCl, 5 mM EDTA, 10 ppm Proclin300, pH 7.4) for 1 hour at room temperature. Diluted human hepatocyte growth factor controls and plasma samples (100 μL) in assay buffer were loaded in duplicates and incubated for 2 hours at room temperature, followed by the addition of 100 μL of affinity-purified goat antihuman hepatocyte growth factor biotin (150 ng/mL) for an additional 1 hour at room temperature. Avidin-conjugated horseradish peroxidase (40 ng/mL) in PBS, 0.5% BSA, 0.05% P 20, 10 ppm Proclin300, pH 7.4, was added (1 hour, room temperature), and the reaction was visualized by the addition of 100 μL of chromogenic substrate (TMB) for 15 minutes. The reaction was stopped with 1M phosphoric acid and absorbance at 450 nm was measured with reduction at 630 nm with an ELISA plate reader. Plates were washed 3 times with washing buffer (0.05% Tween 20/PBS) after each step. As a reference for quantification, a standard curve was established by a serial dilution of human hepatocyte growth factor (CritRS CR67; 2000-15.625 pg/mL).\nHGF levels were log-transformed, and the Kolmogorov-Smirnoff test was used to test the resulting distribution for departure from the Gaussian distribution. The Cox-proportional model was used to test the log-transformed HGF levels for association with the progression free survival (PFS) and overall survival (OS). Association between the response and HGF levels was tested using the Wilcoxon rank-sum test. Kaplan-Meier (KM) curves were used to show display the relationship between the HGF levels and the time-to-event outcomes (PFS and OS). […] The cox-proportional model of the outcome as the function of the continuous HGF level was used to calculate the hazard ratio and corresponding p-value."}, "[9]": {"conditions": "10 mice per group, 4 weeks, PR = tumour volume reduction >50% but <100%"}},
  "data": [
    {"compound": "Cn1c(=O)n(-c2ccc(C(C)(C)C#N)cc2)c2c3cc(-c4cnc5ccccc5c4)ccc3ncc21", "note": "[BEZ235, reference compound]", "values": [
      {"measurement": "reversal of HGF-induced rescue by PI3K versus MAPK pathway inhibition", "setting": "[1]; 100 nM BEZ235 or AZD6244, HGF 50 ng/mL, with kinase inhibitor", "result": "more potent at reversing ligand—induced rescue"}
    ]},
    {"compound": "CCN1CC[C@@H](Nc2n[nH]c3nccc(Oc4ccc(NC(=O)c5ccnn(-c6ccc(F)cc6)c5=O)cc4F)c23)[C@@H](F)C1", "note": "[GDC-0712, N-(4-(3-((3S,4R)-1-ethyl-3-fluoropiperidine-4-ylamino)-1H-pyrazolo[3,4-b]pyridin-4-yloxy)-3-fluorophenyl)-2-(4-fluorophenyl)-3-oxo-2,3-dihydropyridazine-4-carboxamide]", "values": [
      {"measurement": "partial responses, PLX[…] with MET kinase inhibition", "setting": "928MEL xenografts; [9]", "result": 8},
      {"measurement": "tumor regression, B-raf antagonist plus c-met antagonist versus PLX[…] alone", "setting": "928MEL xenografts", "result": "greater effect on tumor regression"}
    ]},
    {"compound": "N.N.[Cl][Pt][Cl]", "note": "[cisplatin]", "values": [
      {"measurement": "RTK ligand rescue from growth suppressive effects of cisplatin", "setting": "[2]", "result": "none of the tested RTK ligands could rescue cells"}
    ]},
    {"compound": "C[C@@H](Oc1cc(-c2cnn(C3CCNCC3)c2)cnc1N)c1c(Cl)ccc(F)c1Cl", "note": "[crizotinib, 3-[(1R)-1-(2,6-dichloro-3-fluorophenyl)ethoxy]-5-(1-piperidin-4-ylpyrazol-4-yl)pyridin-2-amine]", "values": [
      {"measurement": "reversal of HGF survival rescue by MET inhibition", "setting": "[3]; PLX[…], HGF 50 ng/mL, crizotinib 0.5 μM, 72 h", "result": "survival rescue by HGF was reversed"},
      {"measurement": "emergence of lapatinib resistance under MET kinase inhibition", "setting": "[4]", "result": "delayed the emergence of lapatinib resistance"}
    ]},
    {"compound": "FGF: recombinant human FGF-basic purchased from Peprotech", "values": [
      {"measurement": "effect of RTK ligand on conferring drug resistance to kinase inhibitors", "setting": "[1]", "result": "most broadly active ligands"},
      {"measurement": "PI3K/MAPK pathway re-activation by RTK ligand in presence of kinase inhibitor", "setting": "[5]", "result": "only re-activated the MAPK pathway"},
      {"measurement": "rescue from kinase inhibition by activating both PI3K and MAPK pathways", "setting": "[6]", "result": "additive"}
    ]},
    {"compound": "IGF: recombinant human IGF-1 purchased from Peprotech", "values": [
      {"measurement": "effect of RTK ligand on conferring drug resistance to kinase inhibitors", "setting": "[1]", "result": "relatively little effect"},
      {"measurement": "PI3K/MAPK pathway re-activation by RTK ligand in presence of kinase inhibitor", "setting": "[5]", "result": "only re-activated the PI3K"},
      {"measurement": "downstream signalling after receptor activation in non-rescued cells", "setting": "[5]; COLO-201 and BT474 cell lines, IGF", "result": "downstream signalling via PI3K or MAPK was not observed"}
    ]},
    {"compound": "NRG1: HER3 ligand, rhNRG1-β1 purchased from R and D Systems", "values": [
      {"measurement": "effect of RTK ligand on conferring drug resistance to kinase inhibitors", "setting": "[1]", "result": "most broadly active ligands"},
      {"measurement": "rescue despite activation of receptor and a downstream survival effector", "setting": "[1]; H2228 and H358 cells with HGF, COLO-201 cells with NRG1", "result": "not sufficient to rescue cells from kinase inhibition"},
      {"measurement": "number of HER2-amplified breast cancer cell lines rescued from lapatinib", "setting": "[7]", "result": "8 of the 9"},
      {"measurement": "PI3K/MAPK pathway re-activation by RTK ligand in presence of kinase inhibitor", "setting": "[5]", "result": "only re-activated the PI3K"},
      {"measurement": "rescue from kinase inhibition by activating both PI3K and MAPK pathways", "setting": "[6]", "result": "additive"}
    ]},
    {"compound": "PDGF: recombinant human PDGF-AB purchased from Peprotech", "values": [
      {"measurement": "effect of RTK ligand on conferring drug resistance to kinase inhibitors", "setting": "[1]", "result": "relatively little effect"}
    ]},
    {"compound": "PLX4032", "values": [
      {"measurement": "correlation of MET expression with PLX[…] sensitivity", "setting": "[3]; HGF-rescuable cell lines", "result": "inversely correlated"},
      {"measurement": "partial responses, PLX[…] alone", "setting": "928MEL xenografts; [9]", "result": 1},
      {"measurement": "tumor regression, B-raf antagonist plus c-met antagonist versus PLX[…] alone", "setting": "928MEL xenografts", "result": "statistically significant improvement in tumor regression"},
      {"measurement": "hazard ratio, overall survival with increased HGF", "setting": "[8]; Cox-proportional model, p<0.001", "result": 1.8},
      {"measurement": "hazard ratio, progression free survival with increased HGF", "setting": "[8]; Cox-proportional model, p<0.005", "result": 1.42},
      {"measurement": "overall survival, HGF above median versus below median", "setting": "[8]; median plasma HGF 334 pg/mL, p<0.001", "result": "substantially reduced"},
      {"measurement": "progression-free survival, HGF above median versus below median", "setting": "[8]; median plasma HGF 334 pg/mL, p=0.005", "result": "substantially reduced"}
    ]}
  ]
}
